Reference: ChEMBL document CHEMBL1909492, “Discovery of 1-arylcarbonyl-6,7-dimethoxyisoquinoline derivatives as glutamine fructose-6-phosphate amidotransferase (GFAT) inhibitors” (Bioorg Med Chem Lett, 2011)
Converted amounts (≈) assume the structure as drawn. The source made the active and inactive calls. The rule behind the calls is not given here.

Columns and labels:
[1] = Inhibition of GFAT-beta expressed in COS cells using […] as substrate
[2] = molecular target: T1, Glutamine--fructose-6-phosphate aminotransferase [isomerizing] 1 (Homo sapiens, UniProt Q06210); test: Inhibition of GFAT using […] as substrate
T1 sequence (Q06210 whole entry): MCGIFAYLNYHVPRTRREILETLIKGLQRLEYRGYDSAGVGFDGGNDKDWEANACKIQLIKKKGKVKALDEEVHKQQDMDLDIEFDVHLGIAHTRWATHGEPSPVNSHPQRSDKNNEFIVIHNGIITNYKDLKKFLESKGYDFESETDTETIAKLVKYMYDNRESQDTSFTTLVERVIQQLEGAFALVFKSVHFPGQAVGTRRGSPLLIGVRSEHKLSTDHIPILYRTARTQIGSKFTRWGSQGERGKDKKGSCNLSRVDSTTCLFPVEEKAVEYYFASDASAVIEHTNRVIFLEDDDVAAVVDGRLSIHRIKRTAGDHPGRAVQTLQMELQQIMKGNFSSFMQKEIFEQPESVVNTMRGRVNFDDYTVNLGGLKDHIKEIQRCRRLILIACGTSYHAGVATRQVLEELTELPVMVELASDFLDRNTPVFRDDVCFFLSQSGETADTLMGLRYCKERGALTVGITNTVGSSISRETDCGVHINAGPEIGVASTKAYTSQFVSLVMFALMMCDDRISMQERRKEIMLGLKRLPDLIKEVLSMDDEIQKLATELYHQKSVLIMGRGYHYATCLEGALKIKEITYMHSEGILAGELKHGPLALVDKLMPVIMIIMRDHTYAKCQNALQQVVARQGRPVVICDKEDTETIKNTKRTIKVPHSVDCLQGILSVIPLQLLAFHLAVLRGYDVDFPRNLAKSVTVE

[3] = Photo-degradation of compound in DMSO at 1 mM after 2 hrs by HPLC/UV spectrophotometric analysis; format: physicochemical; conditions: read-out: Activity
[4] = test system: Mus musculus; test: Antidiabetic activity in fasted ob/ob mouse assessed as deduction of glucose excursion at 50 mg/kg, po at 4 hr and 1 hr prior to oral glucose challenge by oral glucose tolerance test; format: functional, organism-based; set-up: dose 50 mg/kg
[5] = molecular target: T1, Glutamine--fructose-6-phosphate aminotransferase [isomerizing] 1; test: Noncompetitive inhibition of GFAT in presence of fructose-6-phosphate
[6] = Half life in rat at 10 mg/kg, iv; format: ADME, organism-based; set-up: dose 10 mg/kg, route intravenous; conditions: in vivo
[7] = Clearance in rat at 10 mg/kg, iv; format: ADME, organism-based; set-up: dose 10 mg/kg, route intravenous; conditions: in vivo
[8] = Cmax in rat at 50 mg/kg, po; format: ADME, organism-based; set-up: dose 50 mg/kg, route oral; conditions: in vivo
[9] = Photo-degradation of compound in DMSO exposed to daylight at 1 mM after 24 hrs by HPLC analysis; format: physicochemical; conditions: 1000 µM
[10] = molecular target: T1, Glutamine--fructose-6-phosphate aminotransferase [isomerizing] 1; test: Competitive inhibition of GFAT in presence of glutamine
[11] = test system: Mus musculus; test: Antidiabetic activity in […] ob/ob mouse assessed decrease of glucose AUC at 50 mg/kg, po at 4 hr and 1 hr prior to oral glucose challenge by oral glucose tolerance test relative to control; format: functional; set-up: scale not given: the % may be the effect or the level left
[12] = molecular target: T1, Glutamine--fructose-6-phosphate aminotransferase [isomerizing] 1; test: Reversible inhibition of GFAT
[13] = Photo-degradation of compound in solid state over years by HPLC analysis; format: physicochemical
[14] = Oral bioavailability in rat at 50 mg/kg; format: ADME, organism-based; conditions: in vivo
[15] = Apparent permeability across human Caco2 cell membrane; format: ADME, cell-based; conditions: Caco-2
[16] = Photo-degradation of compound in DMSO at 1 mM after 2 hrs by LC/MS analysis; format: physicochemical; conditions: read-out: Activity
[17] = Tmax in rat at 50 mg/kg, po; format: ADME, organism-based; set-up: dose 50 mg/kg, route oral; conditions: in vivo
[18] = Solubility of the compound at pH 6.4; format: physicochemical; conditions: buffer
[19] = Lipophilicity, log D of the compound at pH 7.2; format: physicochemical; conditions: buffer
[20] = AUC in rat at 10 mg/kg, iv; format: ADME, organism-based; set-up: dose 10 mg/kg, route intravenous; conditions: plasma
[21] = Volume of distribution in rat at 10 mg/kg, iv; format: ADME, organism-based; set-up: dose 10 mg/kg, route intravenous; conditions: in vivo
[22] = AUC in rat at 50 mg/kg, po; format: ADME, organism-based; set-up: dose 50 mg/kg, route oral; conditions: plasma
[23] = molecular target: T1, Glutamine--fructose-6-phosphate aminotransferase [isomerizing] 1; test: Irreversible inhibition of GFAT

SMILES	IC50 [1]	other results
COc1cc2c(C(=O)O)cnc(C(=O)c3c(F)ccc(OC(C)C)c3F)c2cc1OC	900 nM	
COc1ccc(C(=O)c2ncc(C(=O)O)c3cc(OC)c(OC)cc23)cc1	> 100000 nM	
COc1cccc(C(=O)c2ncc(C(=O)O)c3cc(O)c(OC)cc23)c1	> 100000 nM	
COc1cc2ccnc3c2c(c1OC)NC=C3 [AAPTAMINE]		IC50 [2]: 120000 nM
COc1cccc(C(O)c2ncc(C(=O)O)c3cc(OC)c(OC)cc23)c1 (centres undefined)	> 100000 nM	
CCOc1cccc(C(=O)c2ncc(C(=O)O)c3cc(OC)c(OC)cc23)c1	830 nM	
COc1cc2c(C(=O)O)cnc(C(=O)c3c(F)ccc(OC)c3F)c2cc1OC	940 nM	
COc1cc2c(CNS(=O)(=O)C(F)(F)F)cnc(C(=O)c3cccc(OC(C)C)c3)c2cc1OC	1000 nM	Activity [4]: Active; Ki [5]: 300 nM; half-life [6]: 1.68 h; clearance [7]: 3.2 mL/min/kg; Cmax [8]: 112 µM; Stability [9]: Stable; Ki [10]: 300 nM; Activity [11]: >35%; inhibition [12]: Active; Stability [13]: Stable; bioavailability [14]: 91%; Papp [15]: 35.7 ×10⁻⁶ cm/s; degraded at 2 h, 1000 µM [16]: 30%; Tmax [17]: 1 h; solubility [18]: 3 µg/mL (≈ 5.85 µM); logD [19]: 2.89; AUC [20]: 52.3 µg·h/mL; Vd [21]: 0.4 L/kg; AUC [22]: 239 µg·h/mL
COc1ccc(C(=O)c2ncc(C(=O)O)c3cc(OC)c(OC)cc23)cc1OC	20000 nM	
COc1cc2c(CNC(C)=O)cnc(C(=O)c3cccc(OC(C)C)c3)c2cc1OC	1100 nM	
COc1cc2c(C(=O)O)cnc(C(=O)c3ccccc3)c2cc1OC	10000 nM	
COc1cc2c(Cn3oc(=O)[nH]c3=O)cnc(C(=O)c3cccc(OC(C)C)c3)c2cc1OC	580 nM	
COc1cccc(C(=O)c2ncc(C(=O)O)c3cc(OC)c(OC)cc23)c1	1200 nM	
COc1ccc(F)c(C(=O)c2ncc(CNS(=O)(=O)C(F)(F)F)c3cc(OC)c(OC)cc23)c1	680 nM	
COc1cc2c(C(=O)O)cnc(C(=O)c3cc(OC(C)C)ccc3F)c2cc1OC	2500 nM	degraded at 2 h, 1000 µM [3]: 22%
COc1cc2c(CNS(=O)(=O)C(F)(F)F)cnc(C(=O)c3c(F)cccc3F)c2cc1OC	4330 nM	
COC(=O)/C=C/C(=O)NC[C@H](N)C(=O)O		IC50 [23]: 400 nM
COc1cc2c(CNS(C)(=O)=O)cnc(C(=O)c3cccc(OC(C)C)c3)c2cc1OC	900 nM	
N[C@@H](CNC(=O)CBr)C(=O)O		IC50 [23]: 150 nM
COc1cccc(C(=O)c2ncc(C(=O)O)c3cc(OC)ccc23)c1	> 100000 nM	

More lines, main results first:

IC50 [1]	SMILES	other results
800 nM	CCOc1cccc(C(=O)c2ncc(-c3nn[nH]n3)c3cc(OC)c(OC)cc23)c1	
720 nM	COc1cc2c(C(=O)O)cnc(C(=O)c3cccc(OC(C)C)c3)c2cc1OC	degraded at 2 h, 1000 µM [3]: 75.9%
9930 nM	COc1cc2c(C(=O)O)cnc(C(=O)c3c(F)cccc3F)c2cc1OC	inhibition [12]: Active; degraded at 2 h, 1000 µM [3]: 0%
> 100000 nM	COc1ccc(Cc2ncc(C(=O)O)c3cc(OC)c(OC)cc23)cc1OC	
> 100000 nM	COc1cccc(C(=O)c2ncc(C(=O)O)c3ccc(OC)cc23)c1	
870 nM	COc1ccc(F)c(C(=O)c2ncc(C(=O)O)c3cc(OC)c(OC)cc23)c1	degraded at 2 h, 1000 µM [3]: 25.4%
1900 nM	COc1cc2c(CC(=O)O)cnc(C(=O)c3cc(OC(C)C)ccc3F)c2cc1OC	
> 100000 nM	COc1cccc(C(=O)c2ncc(C(=O)O)c3ccccc23)c1	
820 nM	COc1cc2c(CN3C(=O)CSC3=O)cnc(C(=O)c3cccc(OC(C)C)c3)c2cc1OC	
> 100000 nM	COc1cccc(NC(=O)c2ncc(C(=O)O)c3cc(OC)c(OC)cc23)c1	
